Source: PMC10141844 (Archives of Virology, 2023)
“And” between values parts separate entries of the source, which are not always exact repeats. Equal entries are not always repeated. “Also recorded” adds a separate entry of the source.

Experiments:
[1] = system: HEV-1; experiment: HEV-1 subgenomic replicon Renilla luciferase assay in S10-3 cells; format: cell-based, Hepatitis E virus; settings: for HEV-1 inhibition (%): subgenomic replicon, at MNTD: RBV 3.12 µM, CQ 0.06 µM, HCQ 0.78 µM, ART 23.43 µM, 48 h
[2] = in silico toxicity studies, cited from earlier work
[3] = system: HEV-1; experiment: ORF2 protein expression by immunofluorescence assay and western blot; format: cell-based, Hepatitis E virus; settings: IFA and western blot, 72 h and 96 h post-transfection, RBV 3.1 µM, ART 23.4 µM
[4] = biological target: T1, HEV-1 helicase (Hepatitis E virus genotype 1, UniProt P33424); experiment: Colorimetric ATPase assay of recombinant helicase; format: biochemical
T1 sequence (P33424 960-1204): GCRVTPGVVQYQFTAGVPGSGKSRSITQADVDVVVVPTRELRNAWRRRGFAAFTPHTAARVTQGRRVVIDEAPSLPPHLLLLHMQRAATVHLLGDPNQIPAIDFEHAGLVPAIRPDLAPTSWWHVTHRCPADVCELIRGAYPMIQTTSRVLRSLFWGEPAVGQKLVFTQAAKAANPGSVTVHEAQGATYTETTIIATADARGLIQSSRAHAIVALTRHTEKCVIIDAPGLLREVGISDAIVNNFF

[5] = biological target: T2, HEV-1 RdRp (Hepatitis E virus genotype 1, UniProt P33424); experiment: Colorimetric RdRp polymerase assay; format: biochemical
T2 sequence (P33424 1199-1693 limits assumed): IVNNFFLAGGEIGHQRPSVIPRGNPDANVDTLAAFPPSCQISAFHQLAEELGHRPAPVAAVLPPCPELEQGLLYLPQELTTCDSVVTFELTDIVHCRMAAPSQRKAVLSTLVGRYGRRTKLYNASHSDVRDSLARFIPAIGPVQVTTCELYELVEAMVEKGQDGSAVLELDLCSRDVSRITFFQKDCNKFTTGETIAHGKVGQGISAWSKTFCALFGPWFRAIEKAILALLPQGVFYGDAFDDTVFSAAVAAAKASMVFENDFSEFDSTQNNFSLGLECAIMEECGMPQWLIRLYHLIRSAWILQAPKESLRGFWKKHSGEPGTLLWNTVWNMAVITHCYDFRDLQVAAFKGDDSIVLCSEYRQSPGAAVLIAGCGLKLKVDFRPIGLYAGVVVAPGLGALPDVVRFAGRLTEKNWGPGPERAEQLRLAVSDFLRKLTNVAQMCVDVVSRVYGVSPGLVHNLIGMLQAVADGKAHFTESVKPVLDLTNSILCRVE

[6] = oral administration; cited from earlier work
[7] = Cell viability / MTT assay; format: cell-based, human; settings: human, S10-3 human hepatoma cells
[8] = system: S10-3 human hepatoma cells; experiment: Cell viability / MTT assay; format: cell-based; settings: highest concentration tolerated by S10-3 cells, MTT, 120 h

For C[C@H]1[C@H](OC(=O)CCC(=O)O)O[C@@H]2O[C@@]3(C)CC[C@H]4[C@H](C)CC[C@@H]1[C@@]24OO3 [ART, artesunate], the “TI for HEV-1, therapeutic index (CC50/EC50)” value ([1]; CC50/EC50) is listed as 9.68, the “HEV-1 inhibition (%)” value [1] is listed as greater than 50% and the “Mutagenic, tumorigenic and hepatotoxic potential” value ([2]; if used in high doses for a long time) is listed as “moderately mutagenic, tumorigenic, and hepatotoxic”. The “Risk of reproductive or developmental toxicity” value [2] was “no risk”, the ORF2 protein levels [3] was “decreased ORF2 levels; also recorded: reduced ORF2 expression significantly” and the “Reversibility of helicase inhibition” value [4] was “reversible”. The “Helicase ATPase activity inhibition (%)” value ([4]; 4.8 µM ART, 100 µM ATP) was 23%, the “Helicase ATPase activity inhibition (%)” value ([4]; 78 µM ART, 100 µM ATP) was 55% and ~ 55% and the “Mode of inhibition of helicase ATPase” value ([4]; ATP pretreatment assay) was “competitive inhibitor”. The “Mode of inhibition of helicase ATPase” value ([4]; enzyme pretreated with ART) was “noncompetitive inhibitor”, the “ATPase activity (%)” value ([4]; helicase pre-incubated with 19.5 µM ART 30 min, 50 µM ATP) was 62% and the “ATPase activity (%)” value ([4]; helicase pre-incubated with 19.5 µM ART 30 min, 100 µM ATP) was 75%. For the same molecule, the “ATPase activity (%)” value ([4]; helicase pre-incubated with ATP 30 min before 19.5 µM ART, 50 µM ATP) was ~ 79%, the “ATPase activity (%)” value ([4]; helicase pre-incubated with ATP 30 min before 19.5 µM ART, 100 µM ATP) was 86% and the “RdRp polymerase activity inhibition (%)” value ([5]; 4.8 µM ART) was 38%. The “RdRp polymerase activity inhibition (%)” value ([5]; 78 µM ART) was 40%, the Elimination half-life [6] was 21 to 72 min and the Tmax [6] was “less than one hour”. The CC50 at 120 h [7] was 189 ± 14.1 µM and the “MNTD, maximum nontoxic dose” value [8] was 23.43 µM.
With CCN(CC)CCCC(C)Nc1ccnc2cc(Cl)ccc12 (stereo not shown) [CQ, chloroquine] the “HEV-1 inhibition (%)” value [1] was 23 ± 2%, the CC50 at 120 h [7] was 4.77 ± 0.74 µM and the “MNTD, maximum nontoxic dose” value [8] was 0.06 µM.
For CCN(CCO)CCCC(C)Nc1ccnc2cc(Cl)ccc12 (stereo not shown) [HCQ, hydroxychloroquine], the “MNTD, maximum nontoxic dose” value [8] was 0.78 µM.
For NC(=O)c1ncn([C@@H]2O[C@H](CO)[C@@H](O)[C@H]2O)n1 [RBV, ribavirin], the ORF2 protein levels [3] was “decreased ORF2 levels; also recorded: reduced ORF2 expression significantly”, the CC50 at 120 h [7] was 39 ± 5.9 µM and the “MNTD, maximum nontoxic dose” value [8] was 3.12 µM.
With NC(=O)c1ncn([C@@H]2O[C@H](CO[P@@](=O)(O)O[P@](=O)(O)OP(=O)(O)O)[C@@H](O)[C@H]2O)n1 [RTP, Ribavirin triphosphate] the “Helicase ATPase activity inhibition (%)” value ([4]; 3.5 µM RTP, 100 µM ATP) was 22%, the inhibition at 28 µM ([5]; read-out: RdRp polymerase activity inhibition (%), 28 µM RTP (maximum)) was 28% and the CC50 at 120 h [7] was 169 ± 1.6 µM. For the same molecule, the “MNTD, maximum nontoxic dose” value [8] was 7.8 µM.
